Common to all, as to format: cell-based
The subject of one series is Monolayer SKOV3 cells. Kind of series: γ-H2AX / 53BP1 foci immunofluorescence after irradiation. The conditions noted are these: 0.7 μM 1 h before irradiation at 0 or 2 Gy, 6 h, 24 h after irradiation. The protocol: Cells were seeded on coverslip at a density of 5×10^4 per mL and exposed to DMSO or WD at a concentration of 0.7 μM 1 h before being irradiated at 0 or 2 Gy. The medium was removed and replaced by a drug-free medium immediately after irradiation. FIG. 6A. Images of immunofluorescence elicited in SKOV3 cells 1 h, 6 h and 24 h after irradiation taken using an Epifluorescence microscope at a magnification of 63×. […] Scale bar=10 μm. […] Values are normalized with non-irradiated cells, exposed to DMSO or WD respectively. […] Values are normalized with non-irradiated cells, exposed to DMSO or WD respectively. All the data are presented as the mean±SEM of at least 60 nuclei. *Significant differences as determined by Student's t-test (p<0.05).

The next series relates to SKOV3 spheroids. Briefly: MTT antiproliferative assay on SKOV3 spheroids. The following applies: for antiproliferative effect: SKOV3 spheroids; for IC50: SKOV3 spheroids (5 days formation), 48 h exposure. The protocol:
Twenty thousand cells were seeded in an ultra-low affinity round bottom 96 well plates and 5 days were allowed for spheroids formation. […] Error bars represent mean±SEM from 3 independent experiments of at least 6 replicates each.

The subject of a further series is NHEJ DNA repair pathway. Kind of series: Western blot of DNA repair proteins after irradiation. The conditions noted are these: SKOV3 2D, 0.7 μM 1 h before irradiation at 0 or 2 Gy. The method, then:
Western blot showing expression level of ATM, S1981pATM, DNA-PKcs, S2056pDNA-PKcs, XRCC4, RPA70 and RAD51 in SKOV3 cells cultivated in 2D. Cells were exposed to DMSO or WD at a concentration of 0.7 μM 1 h before undergoing an irradiation at 0 or 2 Gy. Proteins within cells were extracted 1 h, 6 h or 24 h after irradiation. A total of 5 μg of proteins was loaded. Bands intensities were quantified using ImageJ, normalized with GAPDH. Numbers represent expression level compared to non-irradiated cells. NI=Non-irradiated samples.
On the technique in general: A western blot detects proteins with antibodies after separation by electrophoresis.

In series [1] the test system is ovarian cancer cells cultivated in a 2D cell arrangement. Kind of series: Clonogenic assay for radiosensitizing effect, 2D culture. The following applies: 0.7 μM 1 h before irradiation at 0, 2, 4 or 6 Gy. The method, then:
The radiosensitizing effect was assessed with a clonogenic assay. […] The medium was removed right after irradiation and replaced by a drug-free medium, changed twice a week for the rest of the experiment. Clonogenic assay was stopped when colonies containing at least 50 cells were observed under the microscope. Error bar represent mean±SEM from 3 independent experiments with at least 2 replicates each.

Series [2] concerns SKOV3 ovarian cancer cells. Briefly: MTT antiproliferative assay on SKOV3 cells in monolayer (2D). The following applies: for IC50: SKOV3 cells cultured in monolayer, 48 h exposure. (In general: Formazan colour is commonly taken as a measure of viable cells.)
The test system of series [3] is spheroids of SKOV3 ovarian cancer cells. Briefly: Spheroid volume growth after drug and irradiation. The following applies: 0.7 μM 1 h before irradiation at 0 Gy or 4 Gy, followed 19 days. The protocol:
FIG. 8 includes a schematic overview of experiment. Cells were plated in an ultra-low affinity 96 well plate with a round bottom and allowed to form spheroids for 5 days. […] The medium containing drug was replaced by a drug-free medium after 4 days, then freshly changed twice a week for the rest of the experiment. Diameter of each spheroid was measured two or three times a week for 19 days with Micrometrics SE Premium software. Spheroid volume growth over time. Volume were normalized to day 0. Error bars represent mean±SEM for at least 5 replicates.

Each structure is given as a SMILES string.

A word on the IC50: it is the concentration at which inhibition is half-maximal. A low value points to greater potency in that assay.

On to `CC1=C(C)C(=O)O[C@@H]([C@](C)(O)[C@H]2CC[C@H]3[C@@H]4C[C@H]5O[C@]56[C@@H](O)C=CC(=O)[C@]6(C)[C@H]4CC[C@]23C)C1` [WD, withanolide D], for which, in the series with Monolayer SKOV3 cells, the “DNA DSBs (γ-H2AX and 53BP1 foci) versus DMSO” value is on record as “more DNA DSBs over 24 h than those exposed to DMSO”. In the series on SKOV3 spheroids, the antiproliferative effect result is “significant antiproliferative effect” and the IC50 came out at 16 µM. In addition, the “mechanism of radiosensitization (expression of ATM, pATM, DNA-PKcs, pDNA-PKcs, XRCC4, RPA70, RAD51)” value in the series with NHEJ DNA repair pathway was “inhibiting the NHEJ DNA repair pathway”. Besides, the radiosensitizing effect entry in series [1] was “have a radiosensitizing effect”. Also, the cytotoxic effect entry in series [2] (SKOV3 2D, 0.156 to 80 μM, 48 h) was “dose-dependent cytotoxic effect”. In addition, the midpoint of inhibition in series [2], the IC50, lay at 4.2 µM. Besides, the “radiosensitization of spheroids (normalized volume)” value in series [3] was “do not radiosensitize”.
On to `CC1=C(CO)C(=O)O[C@@H]([C@@H](C)[C@H]2CC[C@H]3[C@@H]4C[C@H]5O[C@]56[C@@H](O)C=CC(=O)[C@]6(C)[C@H]4CC[C@]23C)C1` [WFA, withaferin A], for which the antiproliferative effect entry in the series with SKOV3 spheroids is listed as “significant antiproliferative effect”. The IC50 with SKOV3 spheroids came to 23 µM; in series [2], 4.4 µM. Moreover, the radiosensitizing effect result in series [1] is listed as “have a radiosensitizing effect”. Moreover, the “radiosensitization of spheroids (normalized volume)” value in series [3] is “do not radiosensitize”.

These data come from patent US20220243160A1, “Method and Apparatus for Interrogating Biological Systems” (Arizona Board of Regents on Behalf of the University of …, priority 2019, published 2022).
